These are literature values, as cited in patent publication US11179330B2, “Doxepin oral transmucosal film” (Xiamen LP Pharmaceutical Co., Ltd., priority 2019, dated 2021).

Where a name gives a salt, the structure may show the parent alone.

The conditions of data set [1]: patients.

With `CN(C)CCC=C1c2ccccc2COc2ccccc21` [Doxepin], the mean oral bioavailability was 13-45%.
For `CN(C)CCC=C1c2ccccc2COc2ccccc21` [Doxepin hydrochloride], the sleep maintained in data set [1] was 7 to 8 h.
